Values quoted from earlier work as cited in US20160213673A1, “ENDURANCE FORMULATION AND USE” (priority 2015, published 2016).

Key:
TRVP-1 = TRVP-1 (Homo sapiens, UniProt Q8NER1)
[1] = 3 mg of 9 mg of dihydrocapsiate per day for 28 days
[2] = following 4 mg/kg caffeine consumption
[3] = during the first 15 minutes of exercise
[4] = system: UCP3 mRNA expression in skeletal muscle; conditions: occurred within minutes of capsinoid ingestion
[5] = not given; remark: listed apart in the source
[6] = exhausted rats
[7] = following capsiate administration

TRVP-1, sequence (Q8NER1 whole entry): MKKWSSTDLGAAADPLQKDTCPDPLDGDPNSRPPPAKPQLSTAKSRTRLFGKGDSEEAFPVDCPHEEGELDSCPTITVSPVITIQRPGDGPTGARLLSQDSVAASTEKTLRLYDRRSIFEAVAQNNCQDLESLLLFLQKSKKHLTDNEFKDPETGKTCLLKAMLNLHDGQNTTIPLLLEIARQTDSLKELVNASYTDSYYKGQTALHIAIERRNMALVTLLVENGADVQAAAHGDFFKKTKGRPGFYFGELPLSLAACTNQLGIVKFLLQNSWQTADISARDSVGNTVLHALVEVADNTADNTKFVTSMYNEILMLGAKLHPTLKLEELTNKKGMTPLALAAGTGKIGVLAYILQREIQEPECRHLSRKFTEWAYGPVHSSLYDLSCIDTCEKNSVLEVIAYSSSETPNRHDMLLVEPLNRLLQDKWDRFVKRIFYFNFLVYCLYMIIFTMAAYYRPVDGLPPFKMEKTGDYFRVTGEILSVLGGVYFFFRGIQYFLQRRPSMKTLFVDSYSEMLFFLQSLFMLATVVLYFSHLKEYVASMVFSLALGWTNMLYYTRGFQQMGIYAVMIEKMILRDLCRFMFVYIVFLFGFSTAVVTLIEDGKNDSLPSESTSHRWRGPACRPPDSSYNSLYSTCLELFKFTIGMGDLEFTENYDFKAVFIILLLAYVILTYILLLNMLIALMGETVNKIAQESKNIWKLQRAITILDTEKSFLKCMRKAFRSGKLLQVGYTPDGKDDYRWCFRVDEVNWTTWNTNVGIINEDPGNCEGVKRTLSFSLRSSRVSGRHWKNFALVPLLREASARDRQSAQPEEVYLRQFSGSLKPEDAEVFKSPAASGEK

COc1cc(COC(=O)CCCCCCC(C)C)ccc1O [dihydrocapsiate]
rates of TRVP-1 activation, capsiate compared with dihydrocapsiate (TRVP-1): similar | post prandial energy expenditure [1]: significant increase | respiratory quotient (RQ) versus placebo group [1]: significantly lower

Cn1c(=O)c2c(ncn2C)n(C)c1=O [caffeine]
plasma free fatty acids [2]: greater increase | respiratory quotient (RQ) [2]: significantly lower | decrease of glycogen utilization [3]: ≤ 50% | arginase activity (arginase): inhibits arginase activity

COc1cc(COC(=O)CCCC/C=C/C(C)C)ccc1O [capsiate]
persistence of UCP3 mRNA expression in skeletal muscle [4]: 2 h | residual glycogen in the gastrocnemius muscle (after 30 min of swimming): higher | serum free fatty acid concentration (after 30 min of swimming): tended to be higher | serum lactic acid concentration (after 30 min of swimming): significantly lower | carbohydrate oxidation [7]: reduced | fat oxidation [7]: significantly higher | oxygen consumption (aerobic) [7]: significantly higher | swimming time versus mice without capsiate (mice): significantly longer | rates of TRVP-1 activation, capsiate compared with dihydrocapsiate (TRVP-1): similar | ATP cost of twitch force generation ([5]; mouse, in vivo): reduced | twitch force-generating capacity ([5]; mouse, in vivo): increased | oxidative phosphorylation during rest ([5]; rest): not affected | contribution of oxidative phosphorylation to total energy turnover ([5]; when exercising): increased | glycolysis ([5]; when exercising): reduction

NC(=O)NCCC[C@H](N)C(=O)O [citrulline]
ammonia toxicity [6]: mitigate ammonia toxicity

N=C(N)NCCC[C@H](N)C(=O)O [arginine]
ammonia toxicity [6]: mitigate ammonia toxicity
